Laboratory results taken from ChEMBL document CHEMBL6074680, “Structure-Based Discovery of a Series of Covalent, Orally Bioavailable, and Selective BFL1 Inhibitors” (J Med Chem, 2024).

What was measured:
BCL2A1/BID = biological target: T1, BCL2A1/BID (Homo sapiens, UniProt Q16548); test: Inhibition of BFL-1/ BH3 (unknown origin) interaction incubated for 2 hrs by TR-FRET assay; assay type: protein assay
T1 sequence (Q16548 whole entry): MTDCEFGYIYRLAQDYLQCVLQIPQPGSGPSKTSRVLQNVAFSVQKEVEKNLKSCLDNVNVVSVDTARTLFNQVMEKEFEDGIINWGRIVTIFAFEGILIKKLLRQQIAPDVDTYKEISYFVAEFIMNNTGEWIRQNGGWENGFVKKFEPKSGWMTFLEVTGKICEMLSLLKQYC
T1 sequence (P55957 whole entry): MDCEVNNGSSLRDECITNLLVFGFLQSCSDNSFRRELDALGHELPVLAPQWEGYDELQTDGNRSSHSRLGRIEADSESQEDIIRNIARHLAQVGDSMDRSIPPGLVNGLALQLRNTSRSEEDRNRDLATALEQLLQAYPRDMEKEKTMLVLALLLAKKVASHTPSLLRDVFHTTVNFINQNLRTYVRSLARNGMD

SU-DHL-1 [1] = test: Induction of apoptosis in human SU-DHL-1 cells assessed as caspase activation in presence of AZD5991 incubated for 6 hrs by caspaseGlo 3/7 reagent based assay; assay type: functional, cell-based; conditions: SU-DHL-1, 6 h
[2] = Metabolic stability in mouse hepatocytes assessed as intrinsic clearance measured per 10^6 cells; assay type: ADME, cell-based, Hepatocyte; conditions: read-out: CLH
[3] = biological target: Apoptosis regulator Bcl-2 (Homo sapiens, UniProt P10415); test: Inhibition of BCL2 (unknown origin) by FRET assay
Apoptosis regulator Bcl-2, sequence (P10415 whole entry): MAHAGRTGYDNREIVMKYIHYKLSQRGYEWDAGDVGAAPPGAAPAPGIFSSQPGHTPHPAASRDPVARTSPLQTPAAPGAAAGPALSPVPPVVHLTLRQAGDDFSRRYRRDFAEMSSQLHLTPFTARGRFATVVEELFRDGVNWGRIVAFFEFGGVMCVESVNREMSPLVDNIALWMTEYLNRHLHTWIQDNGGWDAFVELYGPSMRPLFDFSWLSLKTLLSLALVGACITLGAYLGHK

[4] = Lipophilicity, log D of compound in 1-octanol at pH 7.4 incubated for 4 hrs by HPLC-UV analysis; assay type: physicochemical; conditions: 1-octanol / aqueous phase at pH 7.4, pH 7.4
[5] = Metabolic stability in human hepatocytes assessed as intrinsic clearance measured per 10^6 cells; assay type: ADME, cell-based, Hepatocyte; conditions: read-out: CLH
SU-DHL-1 [6] = test: Antiproliferative activity against human SU-DHL-1 cells assessed as cell viability incubated for 24 hrs by celltiter-glo assay; assay type: functional, cell-based; conditions: SU-DHL-1, 24 h
[7] = Metabolic stability in rat hepatocytes assessed as intrinsic clearance measured per 10^6 cells; assay type: ADME, cell-based, Hepatocyte
Bcl-2-like protein 1 = Bcl-2-like protein 1 (Homo sapiens, UniProt Q07817); test: Inhibition of Bcl-Xl (unknown origin) by FRET assay
Bcl-2-like protein 1, sequence (Q07817 whole entry): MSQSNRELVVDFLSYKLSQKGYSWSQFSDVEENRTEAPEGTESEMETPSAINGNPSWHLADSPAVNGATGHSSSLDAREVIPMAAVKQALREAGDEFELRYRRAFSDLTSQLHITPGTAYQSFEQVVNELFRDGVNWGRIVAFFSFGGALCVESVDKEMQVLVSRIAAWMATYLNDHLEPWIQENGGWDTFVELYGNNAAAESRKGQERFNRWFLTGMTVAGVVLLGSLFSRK

[8] = Metabolic stability in human liver microsome assessed as intrinsic clearance; assay type: ADME; conditions: human liver microsomes, read-out: CLH
[9] = GSH reactivity in PBS buffer at pH 7.4 assessed as half life by LC-UV/MS analysis; assay type: physicochemical
[10] = biological target: Induced myeloid leukemia cell differentiation protein Mcl-1 (Homo sapiens, UniProt Q07820); test: Inhibition of MCL1 (unknown origin) by FRET assay
Induced myeloid leukemia cell differentiation protein Mcl-1, sequence (Q07820 whole entry): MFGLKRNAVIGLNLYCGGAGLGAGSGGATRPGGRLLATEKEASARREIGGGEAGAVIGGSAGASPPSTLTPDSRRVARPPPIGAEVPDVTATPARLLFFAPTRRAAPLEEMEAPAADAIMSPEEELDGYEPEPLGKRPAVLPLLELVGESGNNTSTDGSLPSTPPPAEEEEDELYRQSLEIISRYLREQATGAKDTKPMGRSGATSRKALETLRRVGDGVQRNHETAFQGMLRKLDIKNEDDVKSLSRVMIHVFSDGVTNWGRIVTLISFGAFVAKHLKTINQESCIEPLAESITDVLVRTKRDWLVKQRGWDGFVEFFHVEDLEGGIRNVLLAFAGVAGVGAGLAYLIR

Row | IC50 (BCL2A1/BID) [nM] | EC50 (SU-DHL-1 [1]) [nM] | Structure (SMILES) | further results
1 | 74 | 610 | C=CC(=O)N(c1ccc(O[C@@H]2CC[C@@H](NC(=O)CCCN(C)C)C2)cc1)[C@@H](C)c1ccc(Cl)cc1 | –
2 | 8.5 | 52 | C[C@@H](c1ccc(Cl)cc1)N(C(=O)/C=C/CN(C)C)c1ccc(O[C@@H]2CC[C@@H](NC(=O)N[C@@H]3CCS(=O)(=O)C3)C2)c(F)c1 | hepatocyte CLint [2]: 17 µL/min/1e6 cells; IC50 [3]: > 30000 nM; logD at 4 h [4]: 2.5; hepatocyte CLint [5]: 1.5 µL/min/1e6 cells; EC50 (SU-DHL-1 [6]): 110 nM; hepatocyte CLint ([7]; rat hepatocytes, read-out: CLH): 28 µL/min/1e6 cells; IC50 (Bcl-2-like protein 1): > 30000 nM
3 | 40 | 110 | C=CC(=O)N(c1ccc(O[C@@H]2CC[C@@H](NC(=O)NC3CCS(=O)(=O)C3)C2)cc1)[C@@H](C)c1ccc(Cl)cc1 (mixture of isomers) | –
4 | 43 | 490 | C=CC(=O)N(c1ccc(O[C@@H]2CC[C@@H](N)C2)cc1)[C@@H](CC(N)=O)c1ccc(Cl)cc1 | IC50 [10]: > 100000 nM
5 | 2800 | > 10000 | C=CC(=O)N(c1ccc(O[C@@H]2CC[C@@H](N)C2)cc1)[C@H](CNS(C)(=O)=O)c1ccc(Cl)cc1 | –
6 | 3.9 | 30 | C=CC(=O)N(c1ccc(O[C@@H]2CC[C@@H](NC(=O)NCC(C)(C)N(C)C)C2)c(F)c1)[C@@H](C)c1ccc(Cl)cc1 | hepatocyte CLint [2]: 73 µL/min/1e6 cells; logD at 4 h [4]: 2.8; hepatocyte CLint [5]: 6.1 µL/min/1e6 cells; EC50 (SU-DHL-1 [6]): 87 nM; hepatocyte CLint ([7]; rat hepatocytes, read-out: CLH): 14 µL/min/1e6 cells
7 | 29 | 3100 | C=CC(=O)N(c1ccc(O[C@@H]2CC[C@@H](NC(=O)N[C@H]3CCNC3)C2)cc1)[C@@H](C)c1ccc(Cl)cc1 | IC50 [10]: > 100000 nM

More lines, now with the values behind:

Row | Structure (SMILES) | IC50 (BCL2A1/BID) [nM] | EC50 (SU-DHL-1 [1]) [nM] | further results
8 | C=CC(=O)N(c1ccc(O[C@@H]2CC[C@@H](N)C2)c(C)c1)[C@@H](C)c1ccc(Cl)cc1 | 77 | 650 | –
9 | CN1CCC[C@@H]1/C=C/C(=O)N(Cc1ccc(Cl)cc1)c1ccc(O[C@@H]2CC[C@@H](N)C2)cc1 | 240 | – | –
10 | C=CC(=O)N(c1ccc(O[C@@H]2CC[C@@H](N)C2)c(Cl)c1)[C@@H](C)c1ccc(Cl)cc1 | 24 | 120 | –
11 | C=CC(=O)N(c1ccc(O[C@@H]2CC[C@@H](N)C2)cc1)[C@@H](CCNS(C)(=O)=O)c1ccc(Cl)cc1 | 17 | 90 | EC50 (SU-DHL-1 [6]): 130 nM
12 | C=CC(=O)N(c1cc(F)c(O[C@@H]2CC[C@@H](N)C2)cc1C)[C@@H](C)c1ccc(Cl)cc1 | 31 | 530 | logD at 4 h [4]: 2.7; microsomal CLint [8]: 9.4 µL/min/mg; hepatocyte CLint ([7]; hepatocytes): 12 µL/min/1e6 cells; half-life [9]: 4.47 h
13 | CC#CC(=O)N(c1ccc(O[C@@H]2CC[C@@H](N)C2)cc1)[C@@H](C)c1ccc(Cl)cc1 | 300 | – | –
14 | C=C(Cl)C(=O)N(Cc1ccc(C(F)(F)F)cc1)c1ccc(O[C@@H]2CC[C@@H](N)C2)cc1 (racemic) | 1000 | – | logD at 4 h [4]: 2.4; microsomal CLint [8]: 7.8 µL/min/mg; hepatocyte CLint ([7]; hepatocytes): 52 µL/min/1e6 cells; half-life [9]: 1.42 h
15 | C=CC(=O)N(c1ccc(O[C@@H]2CC[C@@H](NC(=O)N[C@@H]3CCS(=O)(=O)C3)C2)c(F)c1)[C@@H](CC(N)=O)c1ccc(Cl)cc1 | 5 | 79 | hepatocyte CLint [2]: 45 µL/min/1e6 cells; logD at 4 h [4]: 2.2; hepatocyte CLint [5]: 25 µL/min/1e6 cells; hepatocyte CLint ([7]; rat hepatocytes, read-out: CLH): 74 µL/min/1e6 cells
16 | CNS(=O)(=O)OCC(=O)N(Cc1ccc(Cl)cc1)c1ccc(O[C@@H]2CC[C@@H](N)C2)cc1 | 6500 | – | –
17 | C=C(C)C(=O)N(Cc1ccc(C(F)(F)F)cc1)c1ccc(O[C@@H]2CC[C@@H](N)C2)cc1 (racemic) | > 10000 | – | –
